Assay results: patent US10227358B2, “Hydroxyester derivatives, a process for their preparation and pharmaceutical compositions containing them” (LES LABORATOIRES SERVIER, priority 2015, dated 2019)

Key:
Mcl-1 protein = Mcl-1 protein (UniProtKB Q07820) (Homo sapiens, UniProt Q07820); test: Inhibition of Mcl-1 by the fluorescence polarisation technique; format: binding; conditions: fluorescein labelled ligand 1 nM, Mcl-1 protein 5 nM, ~2 hours at room temperature; read-out: IC50 (μM) Mcl-1 FP
Procedure: The relative binding potency of each compound was determined via Fluorescence Polarisation (FP). The method utilised a Fluorescein labelled ligand (Fluorescein-βAla-Ahx-A-REIGAQLRRMADDLNAQY-OH; mw 2,765) which binds to the Mcl-1 protein (such that Mcl-1 corresponds to the UniProtKB® primary accession number: Q07820) leading to an increased anisotropy measured in milli-polarisation (mP) units using a reader. The addition of a compound which binds competitively to the same site as the ligand will result in a greater proportion of unbound ligand in the system indicated by a decrease in mP units.
An 11 point serial dilution of each compound was prepared in DMSO and 2 μl transferred into flat bottomed, low binding, 384-well plate (final DMSO concentration 5%). 38 μl of buffer (10 mM 4-(2-hydroxyethyl)-1-piperazineethanesulfonic acid [HEPES], 150 mM NaCl, 0.05% Tween 20, pH 7.4), containing the Fluorescein labelled ligand (final concentration 1 nM) and Mcl-1 protein (final concentration 5 nM) was then added.
Assay plates were incubated ˜2 hours at room temperature before FP was measured on a […] Synergy2 reader (Ex. 528 nm, Em. 640 nm, Cut off 510 nm) and mP units calculated. The binding of increasing doses of test compound was expressed as a percentage reduction in mP compared to a window established between ‘5% DMSO only’ and ‘100% inhibition’ controls. 11-point dose response curves were plotted with XL-Fit software using a 4-Parameter Logistic Model (Sigmoidal Dose-Response Model) and the inhibitory concentrations that gave a 50% reduction in mP (IC50) were determined.

[1] = system: H929 multiple myeloma tumour line; test: In vitro cytotoxicity (MTT, Microculture Tetrazolium Assay); format: cell-based; conditions: Homo sapiens, NCI-H929; H929 cells, 48 hours exposure, cell viability
Procedure: The cytotoxicity studies were carried out on the H929 multiple myeloma tumour line.
The cells are distributed onto microplates and exposed to the test compounds for 48 hours.
The cell viability is then quantified by a colorimetric assay, the Microculture Tetrazolium Assay (Cancer Res., 1987, 47, 939-942).

Chain of Mcl-1 protein (Q07820 whole entry): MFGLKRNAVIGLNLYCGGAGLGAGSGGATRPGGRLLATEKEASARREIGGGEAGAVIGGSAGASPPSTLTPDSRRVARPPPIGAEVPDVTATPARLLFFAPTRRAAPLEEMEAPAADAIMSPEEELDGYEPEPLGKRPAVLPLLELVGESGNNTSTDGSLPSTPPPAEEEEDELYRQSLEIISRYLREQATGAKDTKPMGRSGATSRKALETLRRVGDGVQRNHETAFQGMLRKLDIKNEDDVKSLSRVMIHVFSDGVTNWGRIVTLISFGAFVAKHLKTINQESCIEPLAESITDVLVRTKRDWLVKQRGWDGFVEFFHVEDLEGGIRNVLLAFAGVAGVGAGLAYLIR

Compound | IC50 (Mcl-1 protein) [µM] | IC50 [1] [µM]
COc1ccccc1-c1nccc(COc2ccccc2CC(Oc2ncnc3sc(-c4ccc(F)cc4)c(-c4ccc(OCCN5CCN(C)CC5)c(Cl)c4C)c23)C(=O)OC(C)OC(=O)OC(C)(C)C)n1 [Example 4, 1-[(tert-butoxycarbonyl)oxy]ethyl (2R)-2-{[(5Sa)-5-{3-chloro-2-methyl-4-[2-(4-methylpiperazin-1-yl)ethoxy]phenyl}-6-(4-fluorophenyl)thieno[2,3-d]pyrimidin-4-yl]oxy}-3-(2-{[2-(2-methoxyphenyl)pyrimidin-4-yl]methoxy}phenyl)propanoate] | 0.959 | –
COCCN(CCOC)C(=O)OC(C)OC(=O)C(Cc1ccccc1OCc1ccnc(-c2ccccc2OC)n1)Oc1ncnc2sc(-c3ccc(F)cc3)c(-c3ccc(OCCN4CCN(C)CC4)c(Cl)c3C)c12 [Example 11, 1-{[bis(2-methoxyethyl)carbamoyl]oxy}ethyl (2R)-2-{[(5Sa)-5-{3-chloro-2-methyl-4-[2-(4-methylpiperazin-1-yl)ethoxy]phenyl}-6-(4-fluorophenyl)thieno[2,3-d]pyrimidin-4-yl]oxy}-3-(2-{[2-(2-methoxyphenyl)pyrimidin-4-yl]methoxy}phenyl)propanoate] | 0.551 | –
COc1ccccc1-c1nccc(COc2ccccc2CC(Oc2ncnc3sc(-c4ccc(F)cc4)c(-c4ccc(OCCN5CCN(C)CC5)c(Cl)c4C)c23)C(=O)OCOP(=O)(O)O)n1 [Example 13, (phosphonooxy)methyl (2R)-2-{[(5Sa)-5-{3-chloro-2-methyl-4-[2-(4-methylpiperazin-1-yl)ethoxy]phenyl}-6-(4-fluorophenyl)thieno[2,3-d]pyrimidin-4-yl]oxy}-3-(2-{[2-(2-methoxyphenyl)pyrimidin-4-yl]methoxy}phenyl)propanoate] | 0.0032 | –
CCOC(=O)OC(C)OC(=O)[C@@H](Cc1ccccc1OCc1ccnc(-c2ccccc2OC)n1)Oc1ncnc2sc(-c3ccc(F)cc3)c(-c3c(C)c(Cl)c(OCCN4CCN(C)CC4)c(Cl)c3C)c12 (stereo partly drawn) [Example 15, 1-[(ethoxycarbonyl)oxy]ethyl (2R)-2-{[5-{3,5-dichloro-2,6-dimethyl-4-[2-(4-methylpiperazin-1-yl)ethoxy]phenyl}-6-(4-fluorophenyl)thieno[2,3-d]pyrimidin-4-yl]oxy}-3-(2-{[2-(2-methoxyphenyl)pyrimidin-4-yl]methoxy}phenyl)propanoate] | 0.453 | 0.068
COc1ccccc1-c1nccc(COc2ccccc2CC(Oc2ncnc3sc(-c4ccc(F)cc4)c(-c4ccc(OCCN5CCN(C)CC5)c(Cl)c4C)c23)C(=O)OC(C)OC(=O)OC(C)C)n1 [Example 3, 1-{[(propan-2-yloxy)carbonyl]oxy}ethyl (2R)-2-{[(5Sa)-5-{3-chloro-2-methyl-4-[2-(4-methylpiperazin-1-yl)ethoxy]phenyl}-6-(4-fluorophenyl)thieno[2,3-d]pyrimidin-4-yl]oxy}-3-(2-{[2-(2-methoxyphenyl)pyrimidin-4-yl]methoxy}phenyl)propanoate] | 0.292 | –
CCN(CC)C(=O)OC(C)OC(=O)C(Cc1ccccc1OCc1ccnc(-c2ccccc2OC)n1)Oc1ncnc2sc(-c3ccc(F)cc3)c(-c3ccc(OCCN4CCN(C)CC4)c(Cl)c3C)c12 [Example 8, 1-[(diethylcarbamoyl)oxy]ethyl (2R)-2-{[(5Sa)-5-{3-chloro-2-methyl-4-[2-(4-methylpiperazin-1-yl)ethoxy]phenyl}-6-(4-fluorophenyl)thieno[2,3-d]pyrimidin-4-yl]oxy}-3-(2-{[2-(2-methoxyphenyl)pyrimidin-4-yl]methoxy}phenyl)propanoate] | 1.41 | –
CCCCCCCCOC(=O)OC(C)OC(=O)C(Cc1ccccc1OCc1ccnc(-c2ccccc2OC)n1)Oc1ncnc2sc(-c3ccc(F)cc3)c(-c3ccc(OCCN4CCN(C)CC4)c(Cl)c3C)c12 [Example 6, 1-{[(octyloxy)carbonyl]oxy}ethyl (2R)-2-{[(5Sa)-5-{3-chloro-2-methyl-4-[2-(4-methylpiperazin-1-yl)ethoxy]phenyl}-6-(4-fluorophenyl)thieno[2,3-d]pyrimidin-4-yl]oxy}-3-(2-{[2-(2-methoxyphenyl)pyrimidin-4-yl]methoxy}phenyl)propanoate] | 0.51 | –
COc1ccccc1-c1nccc(COc2ccccc2CC(Oc2ncnc3sc(-c4ccc(F)cc4)c(-c4ccc(OCCN5CCN(C)CC5)c(Cl)c4C)c23)C(=O)OC(C)OC(=O)N2CCOCC2)n1 [Example 9, 1-{[(2R)-2-{[(5Sa)-5-{3-chloro-2-methyl-4-[2-(4-methylpiperazin-1-yl)ethoxy]phenyl}-6-(4-fluorophenyl)thieno[2,3-d]pyrimidin-4-yl]oxy}-3-(2-{[2-(2-methoxyphenyl)pyrimidin-4-yl]methoxy}phenyl)propanoyl]oxy}ethyl morpholine-4-carboxylate] | 0.52 | –

More lines, in order of falling IC50 (Mcl-1 protein), values ahead:

IC50 (Mcl-1 protein) [µM] | Compound | IC50 [1] [µM]
1.54 | COc1ccccc1-c1nccc(COc2ccccc2C[C@@H](Oc2ncnc3sc(-c4ccc(F)cc4)c(-c4c(C)c(Cl)c(OCCN5CCN(C)CC5)c(Cl)c4C)c23)C(=O)OC(C)OC(=O)N(C)C)n1 (stereo partly drawn) [Example 17, 1-[(dimethylcarbamoyl)oxy]ethyl (2R)-2-{[5-{3,5-dichloro-2,6-dimethyl-4-[2-(4-methylpiperazin-1-yl)ethoxy]phenyl}-6-(4-fluorophenyl)thieno[2,3-d]pyrimidin-4-yl]oxy}-3-(2-{[2-(2-methoxyphenyl)pyrimidin-4-yl]methoxy}phenyl)propanoate] | 0.702
0.438 | COc1ccccc1-c1nccc(COc2ccccc2CC(Oc2ncnc3sc(-c4ccc(F)cc4)c(-c4ccc(OCCN5CCN(C)CC5)c(Cl)c4C)c23)C(=O)OC(C)OC(=O)N(C)C)n1 [Example 7, 1-[(dimethylcarbamoyl)oxy]ethyl (2R)-2-{[(5Sa)-5-{3-chloro-2-methyl-4-[2-(4-methylpiperazin-1-yl)ethoxy]phenyl}-6-(4-fluorophenyl)thieno[2,3-d]pyrimidin-4-yl]oxy}-3-(2-{[2-(2-methoxyphenyl)pyrimidin-4-yl]methoxy}phenyl)propanoate] | –
0.37 | COc1ccccc1-c1nccc(COc2ccccc2CC(Oc2ncnc3sc(-c4ccc(F)cc4)c(-c4ccc(OCCN5CCN(C)CC5)c(Cl)c4C)c23)C(=O)OC(C)OC(=O)OC2CCCC2)n1 [Example 5, 1-{[(cyclopentyloxy)carbonyl]oxy}ethyl (2R)-2-{[(5Sa)-5-{3-chloro-2-methyl-4-[2-(4-methylpiperazin-1-yl)ethoxy]phenyl}-6-(4-fluorophenyl)thieno[2,3-d]pyrimidin-4-yl]oxy}-3-(2-{[2-(2-methoxyphenyl)pyrimidin-4-yl]methoxy}phenyl)propanoate] | –
0.361 | CCOC(=O)OC(C)OC(=O)C(Cc1ccccc1OCc1ccnc(-c2ccccc2OC)n1)Oc1ncnc2sc(-c3ccc(F)cc3)c(-c3ccc(OCCN4CCN(C)CC4)c(Cl)c3C)c12 [Example 2, 1-[(ethoxycarbonyl)oxy]ethyl (2R)-2-{[(5Sa)-5-{3-chloro-2-methyl-4-[2-(4-methylpiperazin-1-yl)ethoxy]phenyl}-6-(4-fluorophenyl)thieno[2,3-d]pyrimidin-4-yl]oxy}-3-(2-{[2-(2-methoxyphenyl)pyrimidin-4-yl]methoxy}phenyl)propanoate] | –
0.318 | COC(=O)CN(C)C(=O)OC(C)OC(=O)C(Cc1ccccc1OCc1ccnc(-c2ccccc2OC)n1)Oc1ncnc2sc(-c3ccc(F)cc3)c(-c3ccc(OCCN4CCN(C)CC4)c(Cl)c3C)c12 [Example 12, 1-{[(2-methoxy-2-oxoethyl)(methyl)carbamoyl]oxy}ethyl (2R)-2-{[(5Sa)-5-{3-chloro-2-methyl-4-[2-(4-methylpiperazin-1-yl)ethoxy]phenyl}-6-(4-fluorophenyl)thieno[2,3-d]pyrimidin-4-yl]oxy}-3-(2-{[2-(2-methoxyphenyl)pyrimidin-4-yl]methoxy}phenyl)propanoate] | –
0.147 | COCCNC(=O)OC(C)OC(=O)C(Cc1ccccc1OCc1ccnc(-c2ccccc2OC)n1)Oc1ncnc2sc(-c3ccc(F)cc3)c(-c3ccc(OCCN4CCN(C)CC4)c(Cl)c3C)c12 [Example 10, 1-{[(2-methoxyethyl)carbamoyl]oxy}ethyl (2R)-2-{[(5Sa)-5-{3-chloro-2-methyl-4-[2-(4-methylpiperazin-1-yl)ethoxy]phenyl}-6-(4-fluorophenyl)thieno[2,3-d]pyrimidin-4-yl]oxy}-3-(2-{[2-(2-methoxyphenyl)pyrimidin-4-yl]methoxy}phenyl) propanoate] | –
0.037 | COC(=O)OC(C)OC(=O)C(Cc1ccccc1OCc1ccnc(-c2ccccc2OC)n1)Oc1ncnc2sc(-c3ccc(F)cc3)c(-c3ccc(OCCN4CCN(C)CC4)c(Cl)c3C)c12 [Example 1, 1-[(methoxycarbonyl)oxy]ethyl (2R)-2-{[(5Sa)-5-{3-chloro-2-methyl-4-[2-(4-methylpiperazin-1-yl)ethoxy]phenyl}-6-(4-fluorophenyl)thieno[2,3-d]pyrimidin-4-yl]oxy}-3-(2-{[2-(2-methoxyphenyl)pyrimidin-4-yl]methoxy}phenyl)propanoate] | –
